# Measured values reported in BindingDB's records for doi:10.1016/j.bmcl.2017.08.043 (Vanderbilt University, 2017).
# Target: T1, Muscarinic acetylcholine receptor M4 (Homo sapiens, UniProt P08173)
# T1 sequence (P08173 whole entry): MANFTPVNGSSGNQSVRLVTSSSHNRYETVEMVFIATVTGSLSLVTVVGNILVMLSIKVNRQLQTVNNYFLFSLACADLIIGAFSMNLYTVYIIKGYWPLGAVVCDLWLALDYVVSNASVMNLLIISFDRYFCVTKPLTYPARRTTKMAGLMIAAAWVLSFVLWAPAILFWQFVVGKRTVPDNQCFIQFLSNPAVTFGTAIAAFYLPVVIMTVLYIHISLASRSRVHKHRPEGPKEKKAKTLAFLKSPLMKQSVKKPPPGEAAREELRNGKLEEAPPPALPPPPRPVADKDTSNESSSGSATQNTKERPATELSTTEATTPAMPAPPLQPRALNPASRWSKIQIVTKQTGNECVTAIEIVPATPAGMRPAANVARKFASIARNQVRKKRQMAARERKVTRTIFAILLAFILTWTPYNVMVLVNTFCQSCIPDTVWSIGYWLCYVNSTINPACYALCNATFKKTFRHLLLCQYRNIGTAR
# Test: ChEBML_1696020
# Text: Positive allosteric modulation of human M4 receptor expressed in CHO cells co-expressing Gqi5 assessed as increase in acetylcholine-induced calcium mobilization
compound,measurement,value
N#Cc1cnc2ccc(F)cc2c1N1CCC(C(=O)NCc2ccccc2)CC1,EC50,897 nM
